In EP1090017B1, “NOVEL COMPOUNDS DERIVED FROM ALPHA-D-XYLOSE, PREPARATION METHOD AND THERAPEUTIC USE” (FOURNIER INDUSTRIE ET SANTE, priority 1998, dated 1999):

Legend:
[1] = tested on: cholestérol sérique; test: Serum cholesterol (area under curve) measured periodically during the 14-week apoE-deficient mouse trial; format: in vivo, souris; settings: for AUC (aire sous courbe du cholestérol): whole 14 weeks of the trial
Source text: (§1) L'activité antiathéromateuse des composés selon l'invention a été mise en évidence sur des souris femelles, déficientes en apolipoprotéine E (homozygotes). Selon le protocole de ce test, le produit à évaluer est administré dans la nourriture (régime alimentaire standard) pendant 14 semaines. Après ce laps de temps, les souris sont euthanasiées et le coeur et la crosse aortique sont prélevés. Les surfaces lésées sont évaluées selon la méthode décrite dans Arteriosclerosis, 1990, 10, p. 316-323.
Durant les 14 semaines de l'essai décrit ci-dessus dans le but d'évaluer les propriétés antiathéromateuses des composés, on a mesuré périodiquement le taux de cholestérol sérique des souris traitées et des souris témoins, et le résultat est exprimé sous la forme aire sous courbe (AUC) du cholestérol pendant toute la durée de l'essai. Les résultats obtenus avec le composé de l'exemple 2 sont reportés dans le tableau II où AUC représente l'aire sous courbe (exprimée en g.jour.1^-1) et la variation (en pourcentage) est appréciée par rapport au groupe témoin. Tableau II

[2] = tested on: souris femelles, déficientes en apolipoprotéine E (homozygotes); test: Antiatheromatous activity in apolipoprotein E-deficient mice: lesion surface after 14 weeks of compound in the food; format: in vivo; settings: 300 mg/kg in the food, versus untreated control mice
Source text: as §1
Le tableau I présente les résultats obtenus selon ce test pratiqué avec le composé de l'exemple 2 à différentes doses. Les résultats sont exprimés en pourcentage de réduction de la surface des plaques d'athérome, par rapport à un groupe de souris témoin non traitées. Tableau I

Structure (SMILES) | variation (%) de l'AUC du cholestérol ([1]; 10 mg/kg, versus control group) [%] | AUC (aire sous courbe du cholestérol) ([1]; 10 mg/kg) [g.jour.1^-1] | AUC (aire sous courbe du cholestérol) ([1]; 100 mg/kg) [g.jour.1^-1] | AUC (aire sous courbe du cholestérol) ([1]; 300 mg/kg) [g.jour.1^-1] | Réduction (%) de la surface des plaques d'athérome [2] [%]
N#Cc1ccc(C(=O)c2ccc(S[C@H]3SC[C@@H](O)[C@H](O)[C@H]3O)cc2)cc1 [Exemple 2, [4-(4-cyanobenzoyl)phényl] 1,5-dithio-α-D-xylopyranoside] | 0 | 585 ± 15 | 507 ± 16 | 505 ± 20 | –
N#Cc1ccc(C(=O)c2ccc(S[C@@H]3SC[C@@H](O)[C@H](O)[C@H]3O)cc2)cc1 [[4-(4-cyanobenzoyl)phényl] 1,5-dithio-β-D-xylopyranoside] | – | – | – | – | 30
